Test results taken from patent US20090156517A1, “STABLE PHARMACEUTICAL COMPOSITIONS OF AMINOGLYCOSIDE ANTIBIOTICS, ION-CHELATING AGENTS, AND BUFFERS” (priority 2006, published 2009).

Assay: Amounts of antibiotic components in the solution over time (reverse-phase LC/UV for β-lactams and β-lactamase inhibitors, HPLC/evaporation-light-scattering for aminoglycosides)
Format: physicochemical
Procedure: The amounts of β-lactam antibiotics and β-lactamase inhibitor were determined using C18 reverse-phase LC and UV-VIS detector (Tianjin […] Co., Ltd., analysis method No. HM-K-03). The content of aminoglycoside antibiotics was measured using reverse-phase HPLC and evaporation-light-scattering detector (Tianjin […] Co., Ltd., analysis method No. HM-K-08). […] The relative amount of each antibiotic component in the composition at each time point was expressed as peak area ratio with respect to the corresponding peak area of an external standard.

[1] = Example 6 solution (cefoperazone sodium, sulbactam sodium, etimicin sulfate, disodium EDTA, sodium citrate pH 6.5), room temperature, 0 h
[2] = Example 6 solution (cefoperazone sodium, sulbactam sodium, etimicin sulfate, disodium EDTA, sodium citrate pH 6.5), room temperature, 1 h
[3] = Example 6 solution (cefoperazone sodium, sulbactam sodium, etimicin sulfate, disodium EDTA, sodium citrate pH 6.5), room temperature, 2 h
[4] = Example 6 solution (cefoperazone sodium, sulbactam sodium, etimicin sulfate, disodium EDTA, sodium citrate pH 6.5), room temperature, 4 h
[5] = Example 7 solution (ceftriaxone sodium, sulbactam sodium, etimicin sulfate, disodium EDTA, sodium citrate pH 6.5), room temperature, 0 h
[6] = Example 7 solution (ceftriaxone sodium, sulbactam sodium, etimicin sulfate, disodium EDTA, sodium citrate pH 6.5), room temperature, 1 h
[7] = Example 7 solution (ceftriaxone sodium, sulbactam sodium, etimicin sulfate, disodium EDTA, sodium citrate pH 6.5), room temperature, 2 h
[8] = Example 7 solution (ceftriaxone sodium, sulbactam sodium, etimicin sulfate, disodium EDTA, sodium citrate pH 6.5), room temperature, 4 h
[9] = Example 7 solution (ceftriaxone sodium, sulbactam sodium, etimicin sulfate, disodium EDTA, sodium citrate pH 6.5), room temperature, 6 h
[10] = Example 7 solution (ceftriaxone sodium, sulbactam sodium, etimicin sulfate, disodium EDTA, sodium citrate pH 6.5), room temperature, 8 h
[11] = Example 5 solution (cefoperazone sodium, sulbactam sodium, gentamicin, disodium EDTA, sodium citrate pH 6.75), room temperature, 0 h
[12] = Example 5 solution (cefoperazone sodium, sulbactam sodium, gentamicin, disodium EDTA, sodium citrate pH 6.75), room temperature, 1 h
[13] = Example 5 solution (cefoperazone sodium, sulbactam sodium, gentamicin, disodium EDTA, sodium citrate pH 6.75), room temperature, 2 h
[14] = Example 5 solution (cefoperazone sodium, sulbactam sodium, gentamicin, disodium EDTA, sodium citrate pH 6.75), room temperature, 4 h

## NCC[C@H](O)C(=O)N[C@@H]1C[C@H](N)[C@@H](O[C@H]2O[C@H](CN)[C@@H](O)[C@H](O)[C@H]2O)[C@H](O)[C@H]1O[C@H]1O[C@H](CO)[C@@H](O)[C@H](N)[C@H]1O [Amikacin, amikacin]
Example 9: amikacin sulfate/disodium EDTA/citrate pH 6.5 solution with fructose stored 7 days at minus 20° C., thawed, cefodizime sodium added, 0 h
  Amount of component, percentage of amount at initial time: 96.88%
Example 9: amikacin sulfate/disodium EDTA/citrate pH 6.5 solution with fructose stored 7 days at minus 20° C., thawed, cefodizime sodium added, 1 h
  Amount of component, percentage of amount at initial time: 97.78%
Example 9: amikacin sulfate/disodium EDTA/citrate pH 6.5 solution with fructose stored 7 days at minus 20° C., thawed, cefodizime sodium added, 2 h
  Amount of component, percentage of amount at initial time: 96.14%
Example 9: amikacin sulfate/disodium EDTA/citrate pH 6.5 solution with fructose stored 7 days at minus 20° C., thawed, cefodizime sodium added, 4 h
  Amount of component, percentage of amount at initial time: 96.88%
Example 9: amikacin sulfate/disodium EDTA/citrate pH 6.5 solution with fructose stored 7 days at minus 20° C., thawed, cefodizime sodium added, 6 h
  Amount of component, percentage of amount at initial time: 98.34%
Example 9: amikacin sulfate/disodium EDTA/citrate pH 6.5 solution with fructose stored 7 days at minus 20° C., thawed, cefodizime sodium added, 8 h
  Amount of component, percentage of amount at initial time: 98.11%
Example 12: thawed solution from Example 10, pH 6.0, amikacin sulfate added, no EDTA, 0 h
  Amount of component, percentage of amount at initial time: 86.05%
Example 12: thawed solution from Example 10, pH 6.0, amikacin sulfate added, no EDTA, 1 h
  Amount of component, percentage of amount at initial time: 83.57%
Example 12: thawed solution from Example 10, pH 6.0, amikacin sulfate added, no EDTA, 2 h
  Amount of component, percentage of amount at initial time: 81.55%
Example 12: thawed solution from Example 10, pH 6.0, amikacin sulfate added, no EDTA, 4 h
  Amount of component, percentage of amount at initial time: 80.55%
Example 12: thawed solution from Example 10, pH 6.0, amikacin sulfate added, no EDTA, 6 h
  Amount of component, percentage of amount at initial time: 85.75%
Example 12: thawed solution from Example 10, pH 6.0, amikacin sulfate added, no EDTA, 8 h
  Amount of component, percentage of amount at initial time: 83.83%

## CCN[C@@H]1C[C@H](N)[C@@H](O[C@H]2O[C@H](CN)CC[C@H]2N)[C@H](O)[C@H]1O[C@H]1OC[C@](C)(O)[C@H](NC)[C@H]1O [Etimicin, etimicin]
[1]
  Amount of component, percentage of amount at initial time: 108.9%
[2]
  Amount of component, percentage of amount at initial time: 100.2%
[3]
  Amount of component, percentage of amount at initial time: 100.5%
[4]
  Amount of component, percentage of amount at initial time: 100.4%
Example 6 solution (cefoperazone sodium, sulbactam sodium, etimicin sulfate, disodium EDTA, sodium citrate pH 6.5), room temperature, 6 h
  Amount of component, percentage of amount at initial time: 100.4%
Example 6 solution (cefoperazone sodium, sulbactam sodium, etimicin sulfate, disodium EDTA, sodium citrate pH 6.5), room temperature, 8 h
  Amount of component, percentage of amount at initial time: 97.50%
[5]
  Amount of component, percentage of amount at initial time: 100.7%
[6]
  Amount of component, percentage of amount at initial time: 101.0%
[7]
  Amount of component, percentage of amount at initial time: 101.0%
[8]
  Amount of component, percentage of amount at initial time: 101.0%
[9]
  Amount of component, percentage of amount at initial time: 100.8%
[10]
  Amount of component, percentage of amount at initial time: 100.7%
Example 11: solution of Example 10 freeze-dried, stored 7 days at 0° C., redissolved, pH 6.0, etimicin sulfate and disodium EDTA added, 0 h
  Amount of component, percentage of amount at initial time: 94.81%
Example 11: solution of Example 10 freeze-dried, stored 7 days at 0° C., redissolved, pH 6.0, etimicin sulfate and disodium EDTA added, 1 h
  Amount of component, percentage of amount at initial time: 99.66%
Example 11: solution of Example 10 freeze-dried, stored 7 days at 0° C., redissolved, pH 6.0, etimicin sulfate and disodium EDTA added, 2 h
  Amount of component, percentage of amount at initial time: 100.9%
Example 11: solution of Example 10 freeze-dried, stored 7 days at 0° C., redissolved, pH 6.0, etimicin sulfate and disodium EDTA added, 4 h
  Amount of component, percentage of amount at initial time: 101.5%
Example 11: solution of Example 10 freeze-dried, stored 7 days at 0° C., redissolved, pH 6.0, etimicin sulfate and disodium EDTA added, 6 h
  Amount of component, percentage of amount at initial time: 96.97%
Example 11: solution of Example 10 freeze-dried, stored 7 days at 0° C., redissolved, pH 6.0, etimicin sulfate and disodium EDTA added, 8 h
  Amount of component, percentage of amount at initial time: 94.44%
Example 14: cefoperazone sodium/tazobactam sodium solution pH 6.75, etimicin sulfate added, 0 h
  Amount of component, percentage of amount at initial time: 100%
Example 14: cefoperazone sodium/tazobactam sodium solution pH 6.75, etimicin sulfate added, 1 h
  Amount of component, percentage of amount at initial time: 98.8%
Example 14: cefoperazone sodium/tazobactam sodium solution pH 6.75, etimicin sulfate added, 2 h
  Amount of component, percentage of amount at initial time: 97.5%
Example 14: cefoperazone sodium/tazobactam sodium solution pH 6.75, etimicin sulfate added, 4 h
  Amount of component, percentage of amount at initial time: 98.4%
Example 14: cefoperazone sodium/tazobactam sodium solution pH 6.75, etimicin sulfate added, 6 h
  Amount of component, percentage of amount at initial time: 95.6%
Example 14: cefoperazone sodium/tazobactam sodium solution pH 6.75, etimicin sulfate added, 8 h
  Amount of component, percentage of amount at initial time: 92.8%

## CC1(C)[C@H](C(=O)O)N2C(=O)C[C@H]2S1(=O)=O [Sulbactam sodium, sulbactam sodium]
Example 4 solution (cefoperazone sodium, sulbactam sodium, gentamicin, sodium citrate pH 6.75, no EDTA), room temperature, 0 h
  Amount of component, percentage of amount at initial time: 101.4%
Example 4 solution (cefoperazone sodium, sulbactam sodium, gentamicin, sodium citrate pH 6.75, no EDTA), room temperature, 1 h
  Amount of component, percentage of amount at initial time: 101.4%
Example 4 solution (cefoperazone sodium, sulbactam sodium, gentamicin, sodium citrate pH 6.75, no EDTA), room temperature, 2 h
  Amount of component, percentage of amount at initial time: 101.5%
Example 4 solution (cefoperazone sodium, sulbactam sodium, gentamicin, sodium citrate pH 6.75, no EDTA), room temperature, 4 h
  Amount of component, percentage of amount at initial time: 109.7%
Example 4 solution (cefoperazone sodium, sulbactam sodium, gentamicin, sodium citrate pH 6.75, no EDTA), room temperature, 6 h
  Amount of component, percentage of amount at initial time: 103.2%
[11]
  Amount of component, percentage of amount at initial time: 101.4%
[12]
  Amount of component, percentage of amount at initial time: 101.4%
[13]
  Amount of component, percentage of amount at initial time: 101.5%
[14]
  Amount of component, percentage of amount at initial time: 109.7%
Example 5 solution (cefoperazone sodium, sulbactam sodium, gentamicin, disodium EDTA, sodium citrate pH 6.75), room temperature, 6 h
  Amount of component, percentage of amount at initial time: 103.2%
[1]
  Amount of component, percentage of amount at initial time: 99.62%
[2]
  Amount of component, percentage of amount at initial time: 100.4%
[3]
  Amount of component, percentage of amount at initial time: 100.2%
[4]
  Amount of component, percentage of amount at initial time: 100.2%
[5]
  Amount of component, percentage of amount at initial time: 96.84%
[6]
  Amount of component, percentage of amount at initial time: 94.43%
[7]
  Amount of component, percentage of amount at initial time: 93.35%
[8]
  Amount of component, percentage of amount at initial time: 93.23%
[9]
  Amount of component, percentage of amount at initial time: 92.13%
[10]
  Amount of component, percentage of amount at initial time: 93.38%
Example 10: piperacillin sodium/sulbactam sodium solution cryopreserved 7 days, thawed, pH 6.0, etimicin sulfate added, no EDTA, 0 h
  Amount of component, percentage of amount at initial time: 94.1%
Example 10: piperacillin sodium/sulbactam sodium solution cryopreserved 7 days, thawed, pH 6.0, etimicin sulfate added, no EDTA, 1 h
  Amount of component, percentage of amount at initial time: 97.4%
Example 10: piperacillin sodium/sulbactam sodium solution cryopreserved 7 days, thawed, pH 6.0, etimicin sulfate added, no EDTA, 2 h
  Amount of component, percentage of amount at initial time: 96.4%
Example 10: piperacillin sodium/sulbactam sodium solution cryopreserved 7 days, thawed, pH 6.0, etimicin sulfate added, no EDTA, 4 h
  Amount of component, percentage of amount at initial time: 97.7%
Example 10: piperacillin sodium/sulbactam sodium solution cryopreserved 7 days, thawed, pH 6.0, etimicin sulfate added, no EDTA, 6 h
  Amount of component, percentage of amount at initial time: 96.9%
Example 10: piperacillin sodium/sulbactam sodium solution cryopreserved 7 days, thawed, pH 6.0, etimicin sulfate added, no EDTA, 8 h
  Amount of component, percentage of amount at initial time: 97.1%

## gentamicin
[11]
  Amount of component, percentage of amount at initial time: 102.1%
[12]
  Amount of component, percentage of amount at initial time: 104.6%
[13]
  Amount of component, percentage of amount at initial time: 96.51%
[14]
  Amount of component, percentage of amount at initial time: 100.4%

## CO/N=C(\C(=O)N[C@@H]1C(=O)N2C(C(=O)O)=C(CSc3nc(=O)c(=O)[nH]n3C)CS[C@H]12)c1csc(N)n1 [Ceftriaxone sodium, ceftriaxone sodium]
[5]
  Amount of component, percentage of amount at initial time: 97.01%
[6]
  Amount of component, percentage of amount at initial time: 100.3%
[7]
  Amount of component, percentage of amount at initial time: 96.40%
[8]
  Amount of component, percentage of amount at initial time: 99.01%
[9]
  Amount of component, percentage of amount at initial time: 98.91%
[10]
  Amount of component, percentage of amount at initial time: 99.53%
Example 8 solution (ceftriaxone sodium, tazobactam sodium, gentamicin sulfate, sodium citrate pH 6.75), room temperature, 0 h
  Amount of component, percentage of amount at initial time: 98.75%
Example 8 solution (ceftriaxone sodium, tazobactam sodium, gentamicin sulfate, sodium citrate pH 6.75), room temperature, 1 h
  Amount of component, percentage of amount at initial time: 100.1%
Example 8 solution (ceftriaxone sodium, tazobactam sodium, gentamicin sulfate, sodium citrate pH 6.75), room temperature, 2 h
  Amount of component, percentage of amount at initial time: 99.97%
Example 8 solution (ceftriaxone sodium, tazobactam sodium, gentamicin sulfate, sodium citrate pH 6.75), room temperature, 4 h
  Amount of component, percentage of amount at initial time: 98.87%
Example 8 solution (ceftriaxone sodium, tazobactam sodium, gentamicin sulfate, sodium citrate pH 6.75), room temperature, 6 h
  Amount of component, percentage of amount at initial time: 99.27%
Example 8 solution (ceftriaxone sodium, tazobactam sodium, gentamicin sulfate, sodium citrate pH 6.75), room temperature, 8 h
  Amount of component, percentage of amount at initial time: 100.5%
